For eight compounds, inhibition, melting point and pest or weed control results are on record in patent US9512120B2, “Microbicidally active imidazopyridine derivatives” (Syngenta Participations AG, priority 2013, dated 2016).

For orientation: inhibition means the change of the read-out against control, counted positive when it falls. In general, melting point refers to the temperature of the solid-liquid transition.

For series [1], the system named is Glomerella lagenarium (Colletotrichum lagenarium). Kind of series: Glomerella lagenarium (Colletotrichum lagenarium) / liquid culture (anthracnose). The format is cell-based. The settings on record: Colletotrichum orbiculare, PDB, 24° C., 3-4 days after application, read-out: control of Glomerella lagenarium (inhibition of growth, photometric). In short, it runs like this:
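Test compound, delivered in DMSO at an application rate of 200 ppm, was combined with spore-containing PDB. Photometric growth-inhibition measurement followed 3-4 days of incubation at 24° C.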

Series [2] concerns Pythium ultimum. Kind of series: Pythium ultimum / liquid culture (seedling damping off). It counts as cell-based. The settings on record: Globisporangium ultimum, potato dextrose broth, 24° C., 2-3 days after application, read-out: control of Pythium ultimum (inhibition of growth, photometric). The protocol:
Pythium ultimum/Liquid Culture (Seedling Damping Off) Mycelia fragments and oospores of a newly grown liquid culture of the fungus were directly mixed into nutrient broth (potato dextrose broth). After placing a DMSO solution of test compound into a 96-well format microtiter plate at an application rate of 200 ppm, the nutrient broth containing the fungal mycelia/spore mixture was added. The test plates were incubated at 24° C. and the inhibition of growth was determined photometrically 2-3 days after application.

The test system of series [3] is Phaeosphaeria nodorum (Septoria nodorum). Kind of series: Phaeosphaeria nodorum (Septoria nodorum) / wheat / leaf disc preventative (glume blotch). The format is in vivo. As to conditions: Parastagonospora nodorum, foliar, wheat leaf segments cv Kanzler, inoculated 2 days after application, assessed 5-7 days after application, read-out: control of Phaeosphaeria nodorum (percent disease control compared to untreated). The essentials: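 Wheat leaf segments (cv Kanzler) on agar sprayed with compound at 200 ppm, inoculated with spores 2 days later. Incubated at 20° C., 75% relative humidity, 12/12 h light/dark; percent disease control versus untreated scored 5-7 days after application.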

For series [4], the system named is Botryotinia fuckeliana (Botrytis cinerea). The experiment in a line: Botryotinia fuckeliana (Botrytis cinerea) / liquid culture (gray mould). It counts as cell-based. The settings on record: Vogels broth, 24° C., 3-4 days after application, read-out: control of Botryotinia fuckeliana (inhibition of growth, photometric). In short, it runs like this:
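Test compound was applied at 200 ppm in DMSO, then Vogels nutrient broth containing cryo-stored B. cinerea conidia was added. Photometric growth-inhibition reading followed after 3-4 days at 24 °C.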

Series [5] deals with Puccinia recondita f. sp. Tritici. Kind of series: Puccinia recondita f. sp. tritici / wheat / leaf disc preventative (brown rust). It counts as in vivo. As to conditions: foliar, wheat leaf segments cv Kanzler, inoculated 1 day after application, assessed 7-9 days after application, read-out: control of Puccinia recondita f. sp. Tritici (percent disease control compared to untreated). In short, it runs like this: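 Preventative test: percent disease control relative to untreated leaf segments was assessed 7-9 days post-application. Wheat (cv Kanzler) leaf discs were treated at 200 ppm and spore-inoculated 1 day afterwards. Discs were held at 19° C and 75% relative humidity under a 12/12 h light cycle.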

For series [6], the system named is Mycosphaerella graminicola (Septoria tritici). Kind of series: Mycosphaerella graminicola (Septoria tritici) / liquid culture (Septoria blotch). The format is cell-based. As to conditions: Zymoseptoria tritici, PDB, 24° C., 4-5 days after application, read-out: control of Mycosphaerella graminicola (inhibition of growth, photometric). In short, it runs like this:
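Growth inhibition was read photometrically after 4–5 days at 24 °C. The test compound was applied at 200 ppm from DMSO solution, then PDB broth seeded with conidia taken straight from cryogenic storage was added.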

Series [7] deals with Pyrenophora teres. Kind of series: Pyrenophora teres / barley / leaf disc preventative (net blotch). The format is in vivo. As to conditions: foliar, barley leaf segments cv Hasso, inoculated two days after application, assessed 5-7 days after application, read-out: control of Pyrenophora teres (disease control compared to untreated). The essentials:
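Preventative leaf-disc test: 200 ppm spray, then spore inoculation after two days on barley cv Hasso segments. Incubation 20 °C, 65% relative humidity, 12 h light/12 h dark; efficacy rated against untreated checks at 5-7 days post-application.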

In series [8] the test system is Gaeumannomyces graminis. The experiment in a line: Gaeumannomyces graminis / liquid culture (take-all of cereals). The format is cell-based. As to conditions: PDB, 24° C., 4-5 days after application, read-out: control of Gaeumannomyces graminis (inhibition of growth, photometric). In short, it runs like this: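 Growth inhibition, measured by photometry 4-5 days post-application at 24 °C, of fungal mycelial fragments in PDB broth. Test compound applied as DMSO solution at 200 ppm.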

Series [9] has as its system Thanatephorus cucumeris (Rhizoctonia solani). The experiment in a line: Thanatephorus cucumeris (Rhizoctonia solani) / liquid culture (foot rot, damping-off). The format is cell-based. The settings on record: PDB, 24° C., 3-4 days after application, read-out: control of Thanatephorus cucumeris (inhibition of growth, photometric). In short, it runs like this: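 At 200 ppm, compounds in DMSO were combined with fresh liquid-culture mycelia in PDB and kept at 24° C; photometric measurement of growth inhibition after 3-4 days.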

The subject of series [10] is Monographella nivalis (Microdochium nivale). The experiment in a line: Monographella nivalis (Microdochium nivale) / liquid culture (foot rot cereals). The format is cell-based. The settings on record: PDB, 24° C., 4-5 days after application, read-out: control of Monographella nivalis (inhibition of growth, photometric). The essentials: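 Cryostored conidia in potato dextrose broth were added to test compound dispensed from DMSO at 200 ppm. Plates were kept at 24° C, and growth inhibition was read photometrically 4-5 days after application.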

The subject of series [11] is Plasmopara viticola. Kind of series: Plasmopara viticola / grape / leaf disc preventative. The format is in vivo. The settings on record: foliar, grape vine leaf disks, inoculated 1 day after application, assessed 6-8 days after application, read-out: control of Plasmopara viticola (percent disease control compared to untreated).
The subject of series [12] is Mycosphaerella arachidis (Cercospora arachidicola). The experiment in a line: Mycosphaerella arachidis (Cercospora arachidicola) / liquid culture (early leaf spot). The format is cell-based. As to conditions: PDB, 24° C., 4-5 days after application, read-out: control of Mycosphaerella arachidis (inhibition of growth, photometric). In short, it runs like this: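 Conidia suspended in potato dextrose broth and added to test compound from DMSO solution at 200 ppm. Incubated at 24 °C; growth inhibition read photometrically 4-5 days after application.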

In series [13] the test system is Sclerotinia sclerotiorum. Kind of series: Sclerotinia sclerotiorum liquid culture (cottony rot / white mold). It counts as cell-based. As to conditions: PDB, 24° C., 3-4 days after application, read-out: control of Sclerotinia sclerotiorum (inhibition of growth, photometric). In short, it runs like this:
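Mycelia fragments of Sclerotinia sclerotiorum in potato dextrose broth were added to compound in DMSO. Cultures incubated at 24° C; growth inhibition determined photometrically 3-4 days after application.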

For `CCCCc1nc(N)n(-c2nc3cnccc3n2C2CCCCC2)n1` [Compound 6, 5-butyl-2-(1-cyclohexylimidazo[4,5-c]pyridin-2-yl)-1,2,4-triazol-3-amine], the melting point is 163 to 165 °C. In addition, in series [1], the inhibition at 20 ppm is at least 80%. Further, in series [2], the inhibition at 20 ppm is at least 80%.
Regarding `CCn1c(-n2ncnc2N)nc2cncc(-c3ccccc3)c21` [Compound 19, 2-(1-ethyl-7-phenylimidazo[4,5-c]pyridin-2-yl)-1,2,4-triazol-3-amine], the melting point fell in the range of 247 to 251 °C. Also, in series [3], the pest or weed control at 200 ppm is at least 80%. For the same compound, the inhibition at 20 ppm in series [4] is at least 80%. Besides, in series [1], the inhibition at 20 ppm was at least 80%. Further, in series [5], the pest or weed control at 200 ppm was at least 80%. In series [6], the inhibition at 20 ppm was at least 80%. The pest or weed control at 200 ppm in series [7] was at least 80%. In [8], the inhibition at 20 ppm is at least 80%. The inhibition at 20 ppm in series [9] is at least 80%. Besides, the inhibition at 20 ppm in series [2] was at least 80%. The inhibition at 20 ppm in [10] was at least 80%. The pest or weed control at 200 ppm in series [11] is at least 80%.
Take `CCn1c(-n2ncnc2N)nc2cncc(C)c21` [Compound 22, 2-(1-ethyl-7-methylimidazo[4,5-c]pyridin-2-yl)-1,2,4-triazol-3-amine]: the melting point fell in the range of 194 to 198 °C. For the same compound, the pest or weed control at 200 ppm in series [3] is at least 80%. For the same compound, the inhibition at 20 ppm in [4] is at least 80%. The inhibition at 20 ppm in series [1] was at least 80%. In addition, the pest or weed control at 200 ppm in series [5] is at least 80%. For the same compound, the inhibition at 20 ppm in [6] is at least 80%. For the same compound, the pest or weed control at 200 ppm in series [7] was at least 80%. The inhibition at 20 ppm in series [8] was at least 80%. Besides, the inhibition at 20 ppm in series [9] is at least 80%. For the same compound, in series [12], the inhibition at 20 ppm is at least 80%. Also, the inhibition at 20 ppm in [2] was at least 80%. For the same compound, the inhibition at 20 ppm in series [13] is at least 80%. For the same compound, the inhibition at 20 ppm in [10] was at least 80%.
As to `CCn1c(-n2ncnc2N)nc2cncc(-c3ccccc3Cl)c21` [Compound 33, 2-[7-(2-chlorophenyl)-1-ethylimidazo[4,5-c]pyridin-2-yl]-1,2,4-triazol-3-amine], the pest or weed control at 200 ppm in [3], in series [5] and in series [7] was at least 80% in each case. The inhibition at 20 ppm in series [4], in series [1], in [6], in [9], in series [12] and in series [2] was at least 80% in each case. The inhibition at 20 ppm in series [13] and in series [10] was at least 80% each time.
For `CCn1c(-n2ncnc2N)nc2cncc(-c3ccc(Cl)cc3Cl)c21` [Compound 38, 2-[7-(2,4-dichlorophenyl)-1-ethylimidazo[4,5-c]pyridin-2-yl]-1,2,4-triazol-3-amine], the pest or weed control at 200 ppm in series [3], in series [5] and in series [7] was at least 80% in each case. For the same compound, the inhibition at 20 ppm in series [4], in series [1], in series [6], in [8], in series [9] and in [12] was at least 80% throughout. The inhibition at 20 ppm in series [2], in [13] and in series [10] was at least 80% each time.
With `CCn1c(-n2ncnc2N)nc2cncc(-c3cc(F)ccc3F)c21` [Compound 39, 2-[7-(2,5-difluorophenyl)-1-ethylimidazo[4,5-c]pyridin-2-yl]-1,2,4-triazol-3-amine], the pest or weed control at 200 ppm in series [3] and in series [7] was at least 80% in each case. In addition, the inhibition at 20 ppm in series [4], in series [1], in series [6], in series [8], in series [9] and in series [12] was at least 80% throughout. The inhibition at 20 ppm in series [2], in series [13] and in [10] was at least 80% throughout.
Consider `CCn1c(-n2ncnc2N)nc2cncc(-c3ccc(F)cc3F)c21` [Compound 80, 2-[7-(2,4-difluorophenyl)-1-ethylimidazo[4,5-c]pyridin-2-yl]-1,2,4-triazol-3-amine], for which the pest or weed control at 200 ppm in series [3], in series [5] and in series [7] was at least 80% each time. Besides, the inhibition at 20 ppm in series [4], in [1], in [6], in series [8], in series [9] and in [12] was at least 80% throughout. In addition, the inhibition at 20 ppm in [2], in series [13] and in series [10] was at least 80% throughout.
Regarding `CCCn1c(-n2ncnc2N)nc2cncc(-c3ccccc3Cl)c21` [Compound 172, 2-[7-(2-chlorophenyl)-1-propyl-imidazo[4,5-c]pyridin-2-yl]-1,2,4-triazol-3-amine], the pest or weed control at 200 ppm in series [3], in series [5], in [7] and in series [11] was at least 80% throughout. Further, the inhibition at 20 ppm in series [4], in series [1], in [6], in [8], in [9] and in series [2] was at least 80% each time. For the same compound, the inhibition at 20 ppm in series [13] and in series [10] was at least 80% each time.
